Source: paper PMC8121805, “Discovery of first-in-class inhibitors of ASH1L histone methyltransferase with anti-leukemic activity” (Nature Communications, 2021)
Where “and” joins values, the source holds several entries; their conditions need not be identical. Identical values can stand only once. Entries after “also recorded” stand apart in the source; their conditions may differ.

How the values were obtained:
[1] = Effect on normal hematopoiesis: flow cytometry of myeloid, B- and T-cells in blood; type: in vivo
Text: width, MPV – Mean platelet volume). n = 9 mice / group. Mean +/- SD. b) Flow cytometry analysis […]
assess the effect on myeloid, B- and T-cells. Statistical significance calculated us ing unpaired 2-tailed t-test. n = 9 mice / group. Mean +/- SD. ns - not significant. (c) Representative gating strategy corresponding to the Supplementary Figure 12b for quantification of myeloid, B- and T-cells in blood samples of mice treated with vehicle or AS-99. SSC-A – side scatter area; FSC-A – forward scatter area; FSC-H – forward scatter height.

G9a = G9a (Homo sapiens, UniProt Q96KQ7); assay: HMT selectivity panel; conditions: 50 µM compound
Protocol: (§1) mM DTT and 0.01% Triton X-100 was used in experiments containing core histone.
experiments containing nucleosome.
G9a 5 core histone 0.05 mg/mL 1
GLP 5 core histone 0.05 mg/mL 1

PRMT1 = PRMT1 (Homo sapiens, UniProt Q99873); assay: HMT selectivity panel; conditions: PRMT1, 50 µM compound
Text: as §1

PRMT4 = PRMT4 (Homo sapiens, UniProt Q86X55); assay: HMT selectivity panel; conditions: PRMT4, 50 µM compound
Text: as §1

PRDM9 = PRDM9 (Homo sapiens, UniProt Q9NQV7); assay: HMT selectivity panel; conditions: PRDM9, 50 µM compound
Text: as §1

NSD1 = NSD1 (Homo sapiens, UniProt Q96L73); assay: HMT selectivity panel; conditions: NSD1, 50 µM compound
Text: as §1

SMYD1 = SMYD1 (Homo sapiens, UniProt Q8NB12); assay: HMT selectivity panel; conditions: SMYD1, 50 µM compound
Text: (§2) Assay conditions for selectivity experiments with a panel of histone
as §1

MLL1 = MLL1 (Homo sapiens, UniProt Q03164); assay: HMT selectivity panel; conditions: MLL1, 50 µM compound
Text: as §1

K562 cells = assay: Annexin V apoptosis assay (flow cytometry); type: cell-based, human; conditions: for K562 % Annexin V/PI+ cells: 7 days
SET7/9 = SET7/9 (Homo sapiens, UniProt Q8WTS6); assay: HMT selectivity panel; conditions: SET7/9, 50 µM compound
Text: as §2, §1

[2] = test system: human CD34+ cells from cord blood; assay: Colony-forming assay with normal hematopoietic progenitor cells; conditions: 7 days
Protocol: The experiment was performed twice. […] Mean ± SD, n = 3 biological replicates. […] Two independent experiments were performed in triplicates. Representative graphs are shown. *P < 0.05; **P < 0.01; ****P < 0.0001; NS not significant.

[3] = test system: MV4;11 leukemic blasts (human CD45+ cells) in NSG mice; assay: Flow cytometry of hCD45+ cells in spleen and peripheral blood; type: in vivo, mouse
Protocol: Red blood cells were lysed with ACK lysis buffer (10-548E, Lonza). Up to 100,000 cells were washed in PBS (with 1% FBS) and stained with the anti–human CD45-BV421 antibody (563879, HI30, BD Biosciences) at 1:50 dilution for 30 min.

PRMT6 = PRMT6 (Homo sapiens, UniProt Q96LA8); assay: HMT selectivity panel; conditions: PRMT6, 50 µM compound
Text: as §1

[4] = test system: panel of diverse set of 30 kinases; assay: Profiling with kinases; conditions: 25 µM, 1 h incubation
Text: This study was outsourced to the Contract Research Organization.

SMYD2 = SMYD2 (Homo sapiens, UniProt Q9NRG4); assay: HMT selectivity panel; conditions: SMYD2, 50 µM compound
Text: as §2, §1

SETD2 = SETD2 (Homo sapiens, UniProt Q9BYW2); assay: HMT selectivity panel; conditions: SETD2, 50 µM compound
Text: as §2, §1

[5] = test system: panel of 20 histone methyltransferases; assay: Panel of 20 histone methyltransferases as a whole; conditions: 50 µM
Protocol: as §1
experiments containing nucleosome.
G9a 5 core histone 0.05 mg/mL 1
GLP 5 core histone 0.05 mg/mL 1

[6] = Fig S12b, individual mice, AS-99 group
[7] = normal mice, 30 mg/kg, i.p., q.d., 14 days
[8] = female, CD-1, mouse, plasma, other: i.v. and i.p.
[9] = individual mice, after last day of treatment, 30 mg/kg q.d. i.p., 30 mg/kg

Sequence of SMYD2 (Q9NRG4 whole entry, species assumed): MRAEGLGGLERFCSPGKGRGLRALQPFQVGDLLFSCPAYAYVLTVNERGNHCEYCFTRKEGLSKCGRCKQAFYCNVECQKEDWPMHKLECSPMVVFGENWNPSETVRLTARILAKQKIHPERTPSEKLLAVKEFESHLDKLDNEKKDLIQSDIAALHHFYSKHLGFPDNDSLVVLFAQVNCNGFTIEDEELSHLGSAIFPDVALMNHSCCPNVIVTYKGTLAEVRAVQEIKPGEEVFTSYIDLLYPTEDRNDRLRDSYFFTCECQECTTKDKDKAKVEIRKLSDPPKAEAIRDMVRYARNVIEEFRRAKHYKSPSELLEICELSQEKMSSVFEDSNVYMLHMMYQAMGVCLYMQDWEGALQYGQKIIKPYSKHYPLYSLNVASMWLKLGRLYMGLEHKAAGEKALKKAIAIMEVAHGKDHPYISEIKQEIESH
Sequence of PRMT1 (Q99873 whole entry, species assumed): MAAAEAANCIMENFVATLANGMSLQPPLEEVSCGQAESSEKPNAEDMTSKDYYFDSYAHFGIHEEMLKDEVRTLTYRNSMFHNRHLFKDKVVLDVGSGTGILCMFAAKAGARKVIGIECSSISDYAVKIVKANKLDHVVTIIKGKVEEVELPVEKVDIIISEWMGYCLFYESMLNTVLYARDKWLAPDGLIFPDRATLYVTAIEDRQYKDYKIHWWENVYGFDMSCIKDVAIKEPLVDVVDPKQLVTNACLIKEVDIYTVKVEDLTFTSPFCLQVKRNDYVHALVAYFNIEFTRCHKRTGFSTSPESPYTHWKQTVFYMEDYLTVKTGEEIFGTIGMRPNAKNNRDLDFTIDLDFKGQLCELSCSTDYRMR
Sequence of G9a (Q96KQ7 whole entry, species assumed): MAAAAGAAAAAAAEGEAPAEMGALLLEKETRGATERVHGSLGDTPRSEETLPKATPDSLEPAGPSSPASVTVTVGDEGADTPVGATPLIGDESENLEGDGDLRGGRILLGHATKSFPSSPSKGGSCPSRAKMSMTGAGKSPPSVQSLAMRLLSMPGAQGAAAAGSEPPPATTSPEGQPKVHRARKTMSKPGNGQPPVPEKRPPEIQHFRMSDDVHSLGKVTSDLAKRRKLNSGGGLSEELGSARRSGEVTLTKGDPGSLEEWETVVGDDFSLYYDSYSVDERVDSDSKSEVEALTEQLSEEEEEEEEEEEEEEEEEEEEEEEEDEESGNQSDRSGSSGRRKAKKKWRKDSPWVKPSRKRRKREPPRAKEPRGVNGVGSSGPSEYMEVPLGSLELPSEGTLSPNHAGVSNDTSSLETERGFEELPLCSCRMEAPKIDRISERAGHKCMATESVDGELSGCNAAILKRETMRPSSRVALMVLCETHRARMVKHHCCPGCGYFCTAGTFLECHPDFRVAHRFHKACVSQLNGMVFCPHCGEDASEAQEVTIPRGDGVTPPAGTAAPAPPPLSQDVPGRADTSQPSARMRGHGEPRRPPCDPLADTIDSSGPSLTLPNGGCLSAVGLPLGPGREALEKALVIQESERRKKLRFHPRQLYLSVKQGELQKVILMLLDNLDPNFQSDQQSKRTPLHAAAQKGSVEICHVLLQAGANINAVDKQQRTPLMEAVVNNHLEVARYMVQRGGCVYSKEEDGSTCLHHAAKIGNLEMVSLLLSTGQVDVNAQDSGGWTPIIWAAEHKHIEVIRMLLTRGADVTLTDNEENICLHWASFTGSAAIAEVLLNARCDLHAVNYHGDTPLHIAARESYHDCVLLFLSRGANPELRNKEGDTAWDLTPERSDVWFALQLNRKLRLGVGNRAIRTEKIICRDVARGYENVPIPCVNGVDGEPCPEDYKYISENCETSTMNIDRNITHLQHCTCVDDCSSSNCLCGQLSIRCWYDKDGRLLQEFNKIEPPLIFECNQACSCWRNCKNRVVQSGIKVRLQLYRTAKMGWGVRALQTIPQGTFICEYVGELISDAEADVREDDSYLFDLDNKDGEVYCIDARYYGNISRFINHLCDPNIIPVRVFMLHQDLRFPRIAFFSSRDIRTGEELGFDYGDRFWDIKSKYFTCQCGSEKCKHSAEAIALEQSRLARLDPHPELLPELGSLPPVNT
Sequence of SMYD1 (Q8NB12 whole entry, species assumed): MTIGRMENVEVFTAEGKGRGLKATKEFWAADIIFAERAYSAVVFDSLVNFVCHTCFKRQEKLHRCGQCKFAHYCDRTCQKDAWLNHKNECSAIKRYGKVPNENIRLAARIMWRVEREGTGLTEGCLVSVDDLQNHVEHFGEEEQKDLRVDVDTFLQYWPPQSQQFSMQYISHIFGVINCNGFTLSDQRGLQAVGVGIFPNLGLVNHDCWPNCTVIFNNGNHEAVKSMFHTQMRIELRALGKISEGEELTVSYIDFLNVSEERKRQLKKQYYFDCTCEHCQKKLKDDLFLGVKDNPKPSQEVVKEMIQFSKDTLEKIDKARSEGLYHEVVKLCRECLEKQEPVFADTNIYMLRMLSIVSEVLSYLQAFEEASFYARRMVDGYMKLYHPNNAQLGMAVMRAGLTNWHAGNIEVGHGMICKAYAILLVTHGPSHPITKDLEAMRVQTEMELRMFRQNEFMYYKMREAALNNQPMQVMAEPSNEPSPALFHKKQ
Sequence of PRMT6 (Q96LA8 whole entry, species assumed): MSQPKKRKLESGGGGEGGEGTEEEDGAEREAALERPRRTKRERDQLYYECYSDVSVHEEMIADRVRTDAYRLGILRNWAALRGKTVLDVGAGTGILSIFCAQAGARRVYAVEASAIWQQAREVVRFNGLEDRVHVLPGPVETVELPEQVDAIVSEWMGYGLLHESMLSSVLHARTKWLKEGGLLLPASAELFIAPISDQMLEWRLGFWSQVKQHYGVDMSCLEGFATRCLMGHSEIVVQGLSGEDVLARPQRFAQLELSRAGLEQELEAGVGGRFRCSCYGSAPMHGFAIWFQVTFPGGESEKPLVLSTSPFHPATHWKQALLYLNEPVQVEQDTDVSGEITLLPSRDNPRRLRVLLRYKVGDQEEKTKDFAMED
Sequence of PRDM9 (Q9NQV7 whole entry, species assumed): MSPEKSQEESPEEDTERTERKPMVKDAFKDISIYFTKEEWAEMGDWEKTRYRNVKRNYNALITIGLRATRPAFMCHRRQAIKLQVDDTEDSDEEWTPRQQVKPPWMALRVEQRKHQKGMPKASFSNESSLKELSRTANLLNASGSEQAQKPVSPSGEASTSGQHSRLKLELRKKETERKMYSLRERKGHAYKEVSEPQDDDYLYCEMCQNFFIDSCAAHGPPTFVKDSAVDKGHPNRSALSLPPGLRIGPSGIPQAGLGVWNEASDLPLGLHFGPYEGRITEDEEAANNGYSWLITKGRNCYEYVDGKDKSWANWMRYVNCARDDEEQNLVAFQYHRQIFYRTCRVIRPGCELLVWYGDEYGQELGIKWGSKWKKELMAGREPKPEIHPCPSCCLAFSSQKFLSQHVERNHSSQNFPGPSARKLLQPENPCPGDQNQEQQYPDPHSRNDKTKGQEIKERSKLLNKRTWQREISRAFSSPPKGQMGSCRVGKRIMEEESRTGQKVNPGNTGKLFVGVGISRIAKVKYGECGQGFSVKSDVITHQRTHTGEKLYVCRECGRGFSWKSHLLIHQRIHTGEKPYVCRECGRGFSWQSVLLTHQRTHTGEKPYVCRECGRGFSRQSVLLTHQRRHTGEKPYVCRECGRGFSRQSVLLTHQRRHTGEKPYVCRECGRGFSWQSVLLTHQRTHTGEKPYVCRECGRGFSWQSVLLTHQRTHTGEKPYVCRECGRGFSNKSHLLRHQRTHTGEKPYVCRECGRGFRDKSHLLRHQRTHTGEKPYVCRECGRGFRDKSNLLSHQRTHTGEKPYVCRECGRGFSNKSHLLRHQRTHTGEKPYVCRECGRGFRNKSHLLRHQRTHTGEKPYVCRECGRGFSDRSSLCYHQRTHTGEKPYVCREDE
Sequence of PRMT4 (Q86X55 whole entry, species assumed): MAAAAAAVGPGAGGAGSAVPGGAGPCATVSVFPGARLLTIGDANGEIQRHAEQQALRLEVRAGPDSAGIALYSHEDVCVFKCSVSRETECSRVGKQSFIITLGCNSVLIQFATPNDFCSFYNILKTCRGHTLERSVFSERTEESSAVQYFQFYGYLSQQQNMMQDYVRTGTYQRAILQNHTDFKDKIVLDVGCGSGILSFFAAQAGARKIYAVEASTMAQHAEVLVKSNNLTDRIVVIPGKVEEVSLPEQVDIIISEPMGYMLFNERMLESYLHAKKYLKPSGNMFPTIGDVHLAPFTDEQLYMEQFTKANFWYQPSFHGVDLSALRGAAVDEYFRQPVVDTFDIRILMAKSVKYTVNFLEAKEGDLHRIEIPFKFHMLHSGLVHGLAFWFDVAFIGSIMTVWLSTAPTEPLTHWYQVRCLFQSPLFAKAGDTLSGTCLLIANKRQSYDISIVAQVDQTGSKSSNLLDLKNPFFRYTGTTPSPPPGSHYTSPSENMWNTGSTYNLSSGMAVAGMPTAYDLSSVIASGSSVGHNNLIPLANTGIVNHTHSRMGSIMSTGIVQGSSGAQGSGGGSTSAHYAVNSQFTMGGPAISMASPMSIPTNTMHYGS
Sequence of SET7/9 (Q8WTS6 whole entry, species assumed): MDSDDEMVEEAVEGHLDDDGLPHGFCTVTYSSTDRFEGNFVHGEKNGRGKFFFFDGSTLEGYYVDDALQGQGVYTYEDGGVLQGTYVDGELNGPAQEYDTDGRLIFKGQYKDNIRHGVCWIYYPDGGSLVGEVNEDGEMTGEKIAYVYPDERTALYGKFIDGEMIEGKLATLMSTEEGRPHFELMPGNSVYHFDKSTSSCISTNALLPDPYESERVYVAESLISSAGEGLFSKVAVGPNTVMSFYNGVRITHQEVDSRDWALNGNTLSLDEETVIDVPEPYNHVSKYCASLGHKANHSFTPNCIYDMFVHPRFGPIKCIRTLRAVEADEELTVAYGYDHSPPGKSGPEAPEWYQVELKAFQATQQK
Protocol for PK studies in mice: The LC-MS/MS method consisted of a Shimadzu UFLC 20 A system and chromatographic separation of test compound was achieved using Waters XBridge C18 column (5 cm × 2.1 mm, 3.5 µm). An AB Sciex QTrap 5500 mass spectrometer equipped with an electrospray ionization source (ABI-Sciex, Toronto, Canada) in the positive-ion multiple reaction monitoring (MRM) mode was used for detection. All pharmacokinetic parameters were calculated by noncompartmental methods using WinNonlin® version 3.2 (Pharsight Corporation, Mountain View, CA, USA). Parameters are presented as a mean ± standard deviation (SD).
CL (clearance), AUC (area under the curve),
Cmax (maximum concentration achieved), Tmax (time at which maximum concentration was
achieved), were calculated by noncompartmental methods using WinNonlin® software version

CN1CC(C(=O)NCc2ccc3c(-c4cccc(C(N)=S)c4)cn(C4CCN(S(=O)(=O)C(F)(F)F)CC4)c3c2)C1 [AS-99]
B cells [1, 6]: 42.2% and 44% and 40.1% and 47.1% and 47.9% and 45.4% and 35.4% and 37.2% and 39.4% | Myeloid cells [1, 6]: 16.7% and 17.1% (2×) and 23.3% and 12.6% and 14.8% and 9.84% and 22.2% and 17.7% | T cells [1, 6]: 27.1% and 24.3% and 22.5% and 18.4% and 27% and 27.8% and 32.5% and 30% and 29.5% | T-cells [1, 7]: unaffected | myeloid and B-cells [1, 7]: slightly changed (increased and reduced, respectively) | AUC (PK studies in mice; female, CD-1, mouse, plasma, ip, 30 mg/kg): 10700 ng·h/mL | concentration at 0.167 h (PK studies in mice; female, CD-1, mouse, plasma, ip, 30 mg/kg, blood plasma level of AS-99, i.p., time 0.167 h): 9800 nM | concentration at 0.25 h (PK studies in mice; female, CD-1, mouse, plasma, ip, 30 mg/kg, blood plasma level of AS-99, i.p., time 0.25 h): 9110 nM | concentration at 0.5 h (PK studies in mice; female, CD-1, mouse, plasma, ip, 30 mg/kg, blood plasma level of AS-99, i.p., time 0.5 h): 6580 nM | concentration at 1 h (PK studies in mice; female, CD-1, mouse, plasma, ip, 30 mg/kg, blood plasma level of AS-99, i.p., time 1 h): 6110 nM | concentration at 2 h (PK studies in mice; female, CD-1, mouse, plasma, ip, 30 mg/kg, blood plasma level of AS-99, i.p., time 2 h): 2760 nM | concentration at 4 h (PK studies in mice; female, CD-1, mouse, plasma, ip, 30 mg/kg, blood plasma level of AS-99, i.p., time 4 h): 840 nM | concentration at 7 h (PK studies in mice; female, CD-1, mouse, plasma, ip, 30 mg/kg, blood plasma level of AS-99, i.p., time 7 h): 300 nM | concentration at 16 h (PK studies in mice; female, CD-1, mouse, plasma, ip, 30 mg/kg, blood plasma level of AS-99, i.p., time 16 h): 84 nM | concentration at 24 h (PK studies in mice; female, CD-1, mouse, plasma, ip, 30 mg/kg, blood plasma level of AS-99, i.p., time 24 h): 33.7 nM | AUC (PK studies in mice; female, CD-1, mouse, plasma, iv, 15 mg/kg): 9700 ng·h/mL | concentration at 0.083 h (PK studies in mice; female, CD-1, mouse, plasma, iv, 15 mg/kg, blood plasma level of AS-99, i.v., time 0.083 h): 25800 nM | concentration at 0.167 h (PK studies in mice; female, CD-1, mouse, plasma, iv, 15 mg/kg, blood plasma level of AS-99, i.v., time 0.167 h): 10200 nM | concentration at 0.25 h (PK studies in mice; female, CD-1, mouse, plasma, iv, 15 mg/kg, blood plasma level of AS-99, i.v., time 0.25 h): 6620 nM | concentration at 0.5 h (PK studies in mice; female, CD-1, mouse, plasma, iv, 15 mg/kg, blood plasma level of AS-99, i.v., time 0.5 h): 5200 nM | concentration at 1 h (PK studies in mice; female, CD-1, mouse, plasma, iv, 15 mg/kg, blood plasma level of AS-99, i.v., time 1 h): 1780 nM | concentration at 2 h (PK studies in mice; female, CD-1, mouse, plasma, iv, 15 mg/kg, blood plasma level of AS-99, i.v., time 2 h): 854 nM | concentration at 4 h (PK studies in mice; female, CD-1, mouse, plasma, iv, 15 mg/kg, blood plasma level of AS-99, i.v., time 4 h): 268 nM | concentration at 7 h (PK studies in mice; female, CD-1, mouse, plasma, iv, 15 mg/kg, blood plasma level of AS-99, i.v., time 7 h): 126 nM | concentration at 16 h (PK studies in mice; female, CD-1, mouse, plasma, iv, 15 mg/kg, blood plasma level of AS-99, i.v., time 16 h): 24.7 nM | concentration at 24 h (PK studies in mice; female, CD-1, mouse, plasma, iv, 15 mg/kg, blood plasma level of AS-99, i.v., time 24 h): 15.1 nM | Cmax (PK studies in mice; [8]): > 10000 nM | half-life (PK studies in mice; [8]): 5 to 6 h | blood plasma level of AS-99 (PK studies in mice; i.p., time 0.167 h): 8805 nM and 7458 nM | blood plasma level of AS-99 (PK studies in mice; i.p., time 0.25 h): 6902 nM and 8721 nM | blood plasma level of AS-99 (PK studies in mice; i.p., time 0.5 h): 6683.5 nM and 5152 nM | blood plasma level of AS-99 (PK studies in mice; i.p., time 1 h): 5269 nM and 5185 nM | blood plasma level of AS-99 (PK studies in mice; i.p., time 2 h): 3266 nM and 1801 nM | blood plasma level of AS-99 (PK studies in mice; i.p., time 4 h): 1054 nM and 710.4 nM | blood plasma level of AS-99 (PK studies in mice; i.p., time 7 h): 351.9 nM and 247.5 nM | blood plasma level of AS-99 (PK studies in mice; i.p., time 16 h): 71.89 nM and 86.7 nM | blood plasma level of AS-99 (PK studies in mice; i.p., time 24 h): 43.77 nM and 41.41 nM | blood plasma level of AS-99 (PK studies in mice; i.v., time 0.083 h): 37878.8 nM | blood plasma level of AS-99 (PK studies in mice; i.v., time 0.167 h): 7643.1 nM | blood plasma level of AS-99 (PK studies in mice; i.v., time 0.25 h): 5774 nM | blood plasma level of AS-99 (PK studies in mice; i.v., time 0.5 h): 4798 nM | blood plasma level of AS-99 (PK studies in mice; i.v., time 1 h): 2559 nM | blood plasma level of AS-99 (PK studies in mice; i.v., time 2 h): 611.1 nM | blood plasma level of AS-99 (PK studies in mice; i.v., time 4 h): 217.2 nM | blood plasma level of AS-99 (PK studies in mice; i.v., time 7 h): 94.11 nM | blood plasma level of AS-99 (PK studies in mice; i.v., time 16 h): 29.8 nM | blood plasma level of AS-99 (PK studies in mice; i.v., time 24 h): 15.32 nM | activity at 50 µM (G9a): 90.9% | % activity (G9a; 50 µM): 91.9579% | activity at 50 µM (PRMT1): 122% | % activity (PRMT1; 50 µM): 110.616% | activity at 50 µM (PRMT4): 103% | % activity (PRMT4; 50 µM): 110.439% | activity at 50 µM (PRDM9): 96.8% | % activity (PRDM9; 50 µM): 100.979% | activity at 50 µM (NSD1): 112% | % activity (NSD1; 50 µM): 113.763% | activity at 50 µM (SMYD1): 81.1% | % activity (SMYD1; 50 µM): 68.7304% | activity at 50 µM (MLL1): 50% | % activity (MLL1; 50 µM): 69.7738% | apoptosis in K562 cells (K562 cells): not in the K562 cells | K562 % Annexin V/PI+ cells (K562 cells; 2 uM): 10.85% and 7.41% and 3.78% | K562 % Annexin V/PI+ cells (K562 cells; 4 uM): 7.07% and 5.34% and 5.33% | K562 % Annexin V/PI+ cells (K562 cells; 6 uM): 4.92% and 4.78% and 6.63% | K562 % Annexin V/PI+ cells (K562 cells; 8 uM): 5.64% and 10.26% and 7.32% | activity at 50 µM (SET7/9): 81.7% | % activity (SET7/9; 50 µM): 85.3173% | effect on colony number or morphology [2]: no effect on colony number or morphology | colony counts ([2]; 3 uM): 70 and 68 | colony counts ([2]; 6 uM): 86 and 64 | hCD45+ % in PB [3, 9]: 6.6% and 0.44% and 0.41% and 0.23% and 0.21% and 0.19% | hCD45+ % in spleen [3, 9]: 2.39% and 0.79% and 1.14% and 1.53% and 0.61% and 1.12% and 0.041% | level of leukemic blasts (human CD45+ cells) in peripheral blood and spleen ([3]; last day of treatment): significantly lower level | activity at 50 µM (PRMT6): 105% | % activity (PRMT6; 50 µM): 107.332% | inhibition in a panel of representative kinases [4]: does not inhibit strongly; also recorded: did not show substantial inhibition | % activity (SMYD2): 79.4042% and 102.085% | activity at 50 µM (SETD2): 101% | % activity (SETD2; 50 µM): 99.1882% | inhibition of the tested HMTs [5]: no significant inhibition
